Tested on: Patients With Major Depressive Disorder
Assay: Phase 3 MOUNTAIN study: sexual functioning by Changes in Sexual Functioning Questionnaire-14 (CSFQ-14), post-hoc analysis
Format: in vivo, human
Conditions: for Odds Ratio for Sexual Dysfunction (Compound (1) relative to placebo): GEE model
Protocol: Results from the multicenter, double-blind, randomized, placebo-controlled Phase 3 MOUNTAIN trial (NCT03672175) evaluating the efficacy, safety, and tolerability of 14-day treatment with 20 mg or 30 mg of Compound (1) compared with placebo (PBO) have been previously presented (Clayton, A. H. Presented at SOBP 2020 Virtual Meeting).
This analysis assessed the effect of 30 mg of Compound (1) treatment compared with PBO on sexual function, as measured by the Changes in Sexual Functioning Questionnaire-14 (CSFQ-14), in the MOUNTAIN trial.
Adult outpatients (18-65 years; n=581) with MDD (HAMD-17 total score≥22 and MADRS total score≥32) were randomized 1:1:1 to Compound (1) 20 mg (data not shown), Compound (1) 30 mg, or PBO, once-nightly for 2 weeks, with follow-up through Day 42 (see FIG. 1 for Study Design). Standard of care antidepressants that had been taken at the same dose for ≥60 days prior to Day 1 of the trial were permitted. Exclusion criteria included attempted suicide associated with the current depressive episode; treatment-resistant depression, and medical history of bipolar disorder, schizophrenia, and/or schizoaffective disorder.
Exploratory, post-hoc analyses included evaluation of sexual functioning using the 14-item; self-report CSFQ-14 at baseline, Day 15, 28, and 42.
Male and female sexual functioning was evaluated as an exploratory endpoint with the validated, 14-item, patient-reported CSFQ-14 scores at baseline, Day 15, Day 28, and Day 42. CSFQ-14 also has 5 sub-scales that measure pleasure, desire/frequency, desire/interest, arousal/excitement, and orgasm/completion, which were also evaluated. Sexual dysfunction was defined as a CSFQ-14TS of ≤41 for females and ≤47 for males. Mixed model for repeated measure and generalized estimating equation were used for analysis on patients with a baseline HAMD-17 total score≥24 (n=323).
The model used was a generalized estimating equation (GEE) for binary response model, with factors for treatment (Compound (1) 30 mg or placebo), baseline CSFQ-14 total score, antidepressant use at baseline (Yes or No), assessment time point, and time point-by-treatment interaction with exchangeable covariance structure.
Odds ratio is the estimate of the odds of having CSFQ sexual dysfunction for subjects treated with Compound (1) relative to that for subjects treated with placebo.

Question: `C[C@@]1(O)CC[C@H]2[C@H](CC[C@@H]3[C@@H]2CC[C@]2(C)[C@@H](C(=O)Cn4cc(C#N)cn4)CC[C@@H]32)C1` [Compound (1), 1-(2-((3R,5R,8R,9R,10S,13S,14S,17S)-3-hydroxy-3,13-dimethylhexadecahydro-1H-cyclopenta[a]phenanthren-17-yl)-2-oxoethyl)-1H-pyrazole-4-carbonitrile] was tested. Which “difference vs PBO in percentage of male patients with sexual dysfunction across individual CSFQ-14 subscales” value (30 mg, Days 15, 28, 42, exception: arousal/excitement at Day 42 (FIG. 5)) did it give?
Answer: The value was “no significant differences”.

Question: What about the “difference vs PBO in percentage of female patients with sexual dysfunction across individual CSFQ-14 subscales” value (30 mg, Days 15, 28, 42, exception: desire/frequency at Day 15 and orgasm/completion at Day 28 (FIG. 4)) of the same molecule?
Answer: The value was “no significant differences”.

Question: And the “difference vs PBO in percentage of patients with sexual dysfunction in the individual CSFQ-14 subscales” value (30 mg, all patients)?
Answer: The value was “no significant differences”.

Question: And the treatment-emergent sexual dysfunction (30 mg, overall conclusion)?
Answer: The treatment-emergent sexual dysfunction was “not associated with treatment-emergent sexual dysfunction”.

Question: And the “impairment of sexual function compared to placebo during the trial” value (30 mg, through Day 42)?
Answer: Its value is “No impairment of sexual function”.

Question: And the “Odds Ratio for Sexual Dysfunction (Compound (1) relative to placebo)” value (“Odds Ratio … (Compound (1) relative to placebo)” for short) (Day 15, Men, 30 mg, CSFQ total score<=47 = sexual dysfunction)?
Answer: Its value is 0.72.

Question: And the “Odds Ratio … (Compound (1) relative to placebo)” value (Day 15, Women, 30 mg, CSFQ total score<=41 = sexual dysfunction)?
Answer: Its value is 1.00.

Question: And the “Odds Ratio … (Compound (1) relative to placebo)” value (Day 28, Men, 30 mg, CSFQ total score<=47 = sexual dysfunction)?
Answer: The value was 1.07.

Question: What about the “Odds Ratio … (Compound (1) relative to placebo)” value (Day 28, Women, 30 mg, CSFQ total score<=41 = sexual dysfunction) of the same molecule?
Answer: The value was 1.01.

Question: What about the “percentage of all patients with sexual dysfunction as assessed by CSFQ-14TS thresholds” value (Day 42 (181/272), from 82.4% (266/323) at baseline, Compound (1) 30 mg- and PBO-treated patients together) of the same molecule?
Answer: The value was 66.5%.

Question: And the “Odds Ratio … (Compound (1) relative to placebo)” value (Day 42, Men, 30 mg, CSFQ total score<=47 = sexual dysfunction)?
Answer: The value was 0.88.

Question: And the “Odds Ratio … (Compound (1) relative to placebo)” value (Day 42, Women, 30 mg, CSFQ total score<=41 = sexual dysfunction)?
Answer: The value was 0.91.

— patent US20240122945A1, “USE OF NEUROACTIVE STEROIDS FOR TREATMENT OF SEXUAL DYSFUNCTION” (Sage Therapeutics, Inc., priority 2021, published 2024)
